Assay results: patent US9873709B2 (priority 2013, dated 2018)

What was measured:
[1] = tested on: JAK1-dependent STAT6 phosphorylation downstream of IL-13 stimulation in TF-1 human erythroleukemia cells; experiment: cells; settings: TF-1, read-out: IL-13-pSTAT6 IC50
[2] = tested on: JAK1-dependent STAT6 phosphorylation downstream of IL-13 stimulation in BEAS-2B human bronchial epithelial cells; experiment: cells; settings: read-out: IL13-pSTAT6 BEASB2B IC50
Description: Inhibitor potency (EC50) was determined in cell-based assays designed to measure JAK1 dependent STAT phosphorylation.
Prior to use in the assays, TF-1 cells were starved of GM-CSF overnight in OptiMEM medium (Life Technologies, Grand Island, N.Y.) supplemented with 0.5% charcoal/dextran stripped fetal bovine serum (FBS), 0.1 mM non-essential amino acids (NEAA), and 1 mM sodium pyruvate. The assays were run in 384-well plates in serum-free OptiMEM medium using 300,000 cells per well. In a second assay approach, BEAS-2B human bronchial epithelial cells obtained from ATCC were plated at 100,000 cells per well of a 96-well plate one day prior to the experiment. The BEAS-2B assay was run in complete growth medium (bronchial epithelial basal medium plus bulletkit; Lonza; Basel, Switzerland).
Test compounds were serially diluted 1:2 in DMSO and then diluted 1:50 in medium just before use. Diluted compounds were added to the cells, for a final DMSO concentration of 0.2%, and incubated for 30 min (for the TF-1 assay) or 1 hr (for the BEAS-2B assay) at 37° C. Then, cells were stimulated with human recombinant cytokine at their respective EC90 concentrations, as previously determined for each individual lot. […] The resultant samples were frozen in the plates at −80° C. Compound mediated inhibition of STAT6 phosphorylation was measured in the cell lysates using MesoScale Discovery (MSD) technology (Gaithersburg, Md.).

| Compound | IC50 [1] [µM] | IC50 [2] [µM] |
| --- | --- | --- |
| C[C@@H]1CN(CCNC(=O)c2ccc(Nc3nc4c(N5CCC(CO)(c6ccc(Cl)cc6)CC5)cccn4n3)cc2)C[C@H](C)O1 [Example 1-278, 4-[[8-[4-(4-chlorophenyl)-4-(hydroxymethyl)-1-piperidyl]-[1,2,4]triazolo[1,5-a]pyridin-2-yl]amino]-N-[2-[(2R,6S)-2,6-dimethylmorpholin-4-yl]ethyl]benzamide] | 0.0163 | 0.0376 |
| O=C(c1ccc(Nc2nc3c(N4CCC(CO)(c5ccc(Cl)cc5)CC4)cccn3n2)cc1)N1CCC(c2ccncc2)C1 (stereo not drawn) [Example 1-279, [4-[[8-[4-(4-chlorophenyl)-4-(hydroxymethyl)-1-piperidyl]-[1,2,4]triazolo[1,5-a]pyridin-2-yl]amino]phenyl]-[3-(4-pyridyl)pyrrolidin-1-yl]methanone] | 0.0281 | 0.0346 |
| O=C(NC1CCN(C2CCCC2)CC1)c1ccc(Nc2nc3c(N4CCC(CO)(c5ccc(Cl)cc5)CC4)cccn3n2)cc1 [Example 1-280, 4-[[8-[4-(4-chlorophenyl)-4-(hydroxymethyl)-1-piperidyl]-[1,2,4]triazolo[1,5-a]pyridin-2-yl]amino]-N-(1-cyclopentyl-4-piperidyl)benzamide] | 0.124 | 0.0528 |
| C[C@H]1CN(C2CCN(C(=O)c3ccc(Nc4nc5c(N6CCC(CO)(c7ccc(Cl)cc7)CC6)cccn5n4)cc3)CC2)C[C@H](C)O1 [Example 1-281, [4-[[8-[4-(4-chlorophenyl)-4-(hydroxymethyl)-1-piperidyl]-[1,2,4]triazolo[1,5-a]pyridin-2-yl]amino]phenyl]-[4-[(2S,6S)-2,6-dimethylmorpholin-4-yl]-1-piperidyl]methanone] | 0.0702 | 0.134 |
| C[C@@H]1CN(C2CCN(C(=O)c3ccc(Nc4nc5c(N6CCC(CO)(c7ccc(Cl)cc7)CC6)cccn5n4)cc3)CC2)C[C@H](C)O1 [Example 1-282, [4-[[8-[4-(4-chlorophenyl)-4-(hydroxymethyl)-1-piperidyl]-[1,2,4]triazolo[1,5-a]pyridin-2-yl]amino]phenyl]-[4-[(2R,6S)-2,6-dimethylmorpholin-4-yl]-1-piperidyl]methanone] | 0.0426 | 0.0556 |
| CC(C)(CNC(=O)c1ccc(Nc2nc3c(N4CCC(CO)(c5ccc(Cl)cc5)CC4)cccn3n2)cc1)N1CCOCC1 [Example 1-285, 4-[[8-[4-(4-chlorophenyl)-4-(hydroxymethyl)-1-piperidyl]-[1,2,4]triazolo[1,5-a]pyridin-2-yl]amino]-N-(2-methyl-2-morpholino-propyl)benzamide] | 0.0221 | 0.0576 |
| CCN(Cc1ccncc1)C(=O)c1ccc(Nc2nc3c(N4CCC(CO)(c5ccc(Cl)cc5)CC4)cccn3n2)cc1 [Example 1-287, 4-[[8-[4-(4-chlorophenyl)-4-(hydroxymethyl)-1-piperidyl]-[1,2,4]triazolo[1,5-a]pyridin-2-yl]amino]-N-ethyl-N-(4-pyridylmethyl)benzamide] | 0.0225 | 0.0364 |
| O=C(c1ccc(Nc2nc3c(N4CCC(CO)(c5ccc(Cl)cc5)CC4)cccn3n2)cc1)N1CCCC1c1ccncc1 (stereo not drawn) [Example 1-288, [4-[[8-[4-(4-chlorophenyl)-4-(hydroxymethyl)-1-piperidyl]-[1,2,4]triazolo[1,5-a]pyridin-2-yl]amino]phenyl]-[2-(4-pyridyl)pyrrolidin-1-yl]methanone] | 0.028 | 0.0677 |
| CN1CC[C@H]2CN(C(=O)c3ccc(Nc4nc5c(C6=CCN(C(=O)CCC(F)(F)F)CC6)cccn5n4)cc3)C[C@H]21 [Example 2-38, 1-[4-[2-[4-[(3aS,6aS)-1-methyl-2,3,3a,4,6,6a-hexahydropyrrolo[3,4-b]pyrrole-5-carbonyl]anilino]-[1,2,4]triazolo[1,5-a]pyridin-8-yl]-3,6-dihydro-2H-pyridin-1-yl]-4,4,4-trifluoro-butan-1-one] | 0.0029 | 0.0286 |
